Results on one compound are retold here after patent publication US4778824A, “Method for suppressing a transplantation immunity and treating an allergic disease and an autoimmune disease” (Zaidan Hojin Biseibutsu Kagaku Kenkyu Kai, priority 1984, dated 1988).

Structures are written as SMILES. “Also recorded” adds a separate entry of the source.

One series concerns bone marrow. Kind of series: Bone marrow inhibition in the skin allograft test. The series is classed as in vivo, Fischer rats. The note with it: i.p., 10 or 20 days. The text has this: (§1) In the next place, the present inventors conducted a skin graft test with rats. In accordance with the method of Denham et al. (Denham et al., International Archives of Allergy and Applied Immunology, vol. 62, pp. 443-458, 1980), the skin of the tail of SHR rats was peeled and allografted onto Fischer rats. […] The inhibitory action of spergualin on tissue rejections is expected to manifest itself not only in skin transplantation but also in the transplantation of such organs as the kidney, heart, spleen, lung, liver, bone marrow and endocrine organs.
(§2) Skin sections (5×10 mm) were peeled from the tails of SHR rats (female, 10 wk old) and transplanted to Fischer rats (female, 10 wk old) on the back. Varying doses of spergualin were administered intraperitoneally for a consecutive period of 10 or 20 days starting on the day following the transplantation. Complete necrosis of the graft was used as a measure of rejection and the inhibitory action of the compound was evaluated in terms of how long the rejection was postponed. […] The longer the period of administration, the greater the inhibitory action.

Series [1] has as its system Skin allograft rejection (SHR to Fischer rats). Briefly: Inhibition of rejection of skin allograft. Format: in vivo.
Excerpt: as §1, §2

Another series concerns mice. The note with it: cited from earlier work.

With `N=C(N)NCCCCC(O)CC(=O)NC(O)C(=O)NCCCCNCCCN` (stereo not drawn) [spergualin, Spergualin], the “inhibition of the bone marrow” value in the series on bone marrow was “No inhibition of the bone marrow was observed; also recorded: No such side effects as bone marrow inhibition were observed”. In series [1] (i.p., 10 or 20 days), the “dose dependence of inhibitory action on skin allograft rejection” value was “dose-dependent”. In addition, the “inhibition of the rejection” value in series [1] (throughout the administration period) is recorded as “Complete inhibition of the rejection”. Also, in the series on mice, the cumulative toxicity entry is given as “No cumulative toxicity was observed”. Also, the lethality result in the series on mice (gradual intravenous administration of 80 mg/kg) is on record as “not lethal”. Moreover, the LD50 result with mice (intraperitoneal) is reported as “approximately 150 mg/kg”.
